Source: patent US7307063B2, “Melanocortin metallopeptides for treatment of sexual dysfunction” (Palatin Technologies, Inc., priority 2001, dated 2007)
Several values for one entry are separate records, joined by “and”; a condition that tells them apart may be missing. Identical values can stand only once. Non-standard residues stand in square brackets, D forms with d. No end group written: not given here. Bip = N[C@@H](Cc1ccc(-c2ccccc2)cc1)C(=O)O; 2Nal = N[C@@H](Cc1ccc2ccccc2c1)C(=O)O; dIgl = N[C@@H](C(=O)O)C1Cc2ccccc2C1; aThr = C[C@H](O)[C@H](N)C(=O)O; 4‑Amc = not defined here; Nle = CCCC[C@H](N)C(=O)O; Ac5c = NC1(C(=O)O)CCCC1; Ahp = NCCCCCCC(=O)O

Tests used:
hMC2-R = molecular target: T1, hMC2-R (Homo sapiens, UniProt P41968); experiment: Competitive binding assay of additional compounds, Table 6 hMC2-R; conditions: 1 μM, mean of triplicate
T1 construct: expressed in transfected cells; host or cells: HEK-293
T1 sequence (P41968 whole entry): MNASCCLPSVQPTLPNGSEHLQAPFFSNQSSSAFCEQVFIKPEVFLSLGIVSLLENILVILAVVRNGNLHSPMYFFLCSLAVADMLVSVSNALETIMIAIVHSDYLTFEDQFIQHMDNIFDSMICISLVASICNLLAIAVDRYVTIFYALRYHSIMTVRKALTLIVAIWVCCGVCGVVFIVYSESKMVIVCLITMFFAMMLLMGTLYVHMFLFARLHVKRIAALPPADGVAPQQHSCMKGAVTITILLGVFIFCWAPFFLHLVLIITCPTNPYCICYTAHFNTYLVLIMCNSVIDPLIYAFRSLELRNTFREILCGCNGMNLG

MC4-R = molecular target: T2, MC4-R (Homo sapiens, UniProt P32245); experiment: Competitive binding assay: inhibition of 125I-NDP-α-MSH binding to HEK-293 membranes with cloned human receptor subtype 4; conditions: Table 6; 1 μM; mean of triplicate
T2 construct: expressed in transfected cells; host or cells: HEK-293
T2 sequence (P32245 whole entry): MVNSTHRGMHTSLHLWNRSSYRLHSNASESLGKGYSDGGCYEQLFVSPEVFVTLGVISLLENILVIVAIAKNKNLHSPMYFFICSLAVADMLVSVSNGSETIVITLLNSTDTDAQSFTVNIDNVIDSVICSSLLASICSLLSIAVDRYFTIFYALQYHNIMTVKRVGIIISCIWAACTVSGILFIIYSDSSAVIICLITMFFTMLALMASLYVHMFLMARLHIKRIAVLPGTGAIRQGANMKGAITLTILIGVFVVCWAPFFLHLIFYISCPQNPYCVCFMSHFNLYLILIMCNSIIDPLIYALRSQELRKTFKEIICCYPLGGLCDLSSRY
Method in brief: (§1)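 Percent inhibition of 125I-NDP-α-MSH binding, from cpm normalized to 100% specific binding (total minus binding with 1 μM α-MSH). Test compounds were Re-complexed metallopeptides at a chosen concentration; triplicate means for the added peptides.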

hMC5-R = molecular target: T3, hMC5-R (Homo sapiens, UniProt P33032); experiment: Competitive binding assay: inhibition of 125I-NDP-α-MSH binding to HEK-293 membranes with cloned human receptor subtype 5; conditions: Table 6; 1 μM; mean of triplicate
T3 construct: expressed in transfected cells; host or cells: HEK-293
T3 sequence (P33032 whole entry): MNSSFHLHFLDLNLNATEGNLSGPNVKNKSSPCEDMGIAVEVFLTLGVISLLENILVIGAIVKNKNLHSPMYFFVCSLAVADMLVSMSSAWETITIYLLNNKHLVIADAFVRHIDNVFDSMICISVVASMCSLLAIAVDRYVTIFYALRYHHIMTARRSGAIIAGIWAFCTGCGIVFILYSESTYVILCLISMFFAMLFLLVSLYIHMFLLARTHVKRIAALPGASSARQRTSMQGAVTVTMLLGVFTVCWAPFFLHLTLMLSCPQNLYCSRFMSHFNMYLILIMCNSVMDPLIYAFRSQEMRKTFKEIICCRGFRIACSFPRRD
Method in brief: as §1

MC1-R = molecular target: T4, MC1-R (Mus musculus, UniProt Q01727); experiment: Competitive binding assay: inhibition of 125I-NDP-α-MSH binding to membranes from B16-F10 mouse melanoma cells; conditions: Table 6; 1 μM; mean of triplicate
T4 construct: MC1-R membranes were isolated from B16—F10 mouse melanoma cells; endogenous in cells; host or cells: B16-F10 mouse melanoma cells
T4 sequence (Q01727 whole entry): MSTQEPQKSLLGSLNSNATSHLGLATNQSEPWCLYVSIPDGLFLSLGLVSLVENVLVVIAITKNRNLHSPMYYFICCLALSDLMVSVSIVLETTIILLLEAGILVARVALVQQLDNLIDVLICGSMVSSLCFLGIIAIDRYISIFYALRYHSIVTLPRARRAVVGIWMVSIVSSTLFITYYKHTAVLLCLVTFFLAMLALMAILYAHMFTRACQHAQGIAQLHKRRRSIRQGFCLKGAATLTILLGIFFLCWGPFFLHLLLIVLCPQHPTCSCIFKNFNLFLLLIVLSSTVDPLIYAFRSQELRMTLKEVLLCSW
Method in brief: as §1

| Substance | % Inhibition of Binding hMC2-R (hMC2-R) [%] | % Inhibition of Binding hMC4-R (MC4-R) | % Inhibition of Binding hMC5-R (hMC5-R) [%] | % Inhibition of Binding MC1-R (MC1-R) |
| --- | --- | --- | --- | --- |
| 3′-Br Phenyl acetyl-Arg-Arg-D-Phe(4′-Cl)-Cys-Bip-NH2 | 60 | 78% | 86 | 69% |
| 3′-Br Phenyl acetyl-Arg-Arg-D-Phe(3′-Cl)-Cys-Nal 1′-NH2 | 49 | 62% | 83 | 61% |
| Allo-Thr-D-Phe-Arg-Trp-Cys-NH2 | 0 | 22% | 2 | 28% |
| [dP][dF]RWC-NH2 | 0 | 18% | 35 | 1% |
| D-Tiq-D-Phe-Arg-Cys-Trp-NH2 | 3 | 13% | 39 | 43% |
| allo-Thr-D-Phe-Arg-Cys-Trp-NH2 ([aThr][dF]RCW-NH2; also: metal complex) | 5 | 0% | 31 | 66% |
| 3′-Br-Phenylacetyl-His-Gly-D-Phe(4′-Cl)Trp-Cys-NH2 | 14 | 2% | 16 | 33% |
| 4-Amc-D-Phe-Arg-Trp-Cys-NH2 ({4‑Amc}-[dF]RWC-NH2; not fully specified; printed as 4-Amc-D-Phe-Arg-Trp-Cys-NH2; reading uncertain) | 0 | 6% | 6 | 51% |
| Amb-D-Phe-Arg-Trp-Cys-NH2 | 0 | 0% | 5 | 39% |
| Tic-D-Nal-2′-Arg-Trp-Cys-NH2 | 52 | 92% | 83 | 10% |
| Aic-D-Phe-Arg-Cys-Trp-NH2 | 0 | 21% | 71 | 59% |
| Pro-D-Phe-Arg-Cys-Trp-NH2 (P[dF]RCW-NH2; also: metal complex) | 0 | 2% | 33 | 27% |
| 3′-Br Phenyl acetyl-Arg-Arg-D-Phe(4′-Cl)-Cys-Nal 1′-NH2 | 85 | 84% | 89 | 90% |
| Ac-[Nle]AF[dF]RCW-NH2 | 0 | 16% | 71 | 58% |
| 7-amino-Heptanoyl-D-Igl-D-Phe-Arg-Trp-Cys-NH2 ([Ahp][dIgl][dF]RWC-NH2; not fully specified; printed as 7-amino-Heptanoyl-D-Igl-D-Phe-Arg-Trp-Cys-NH2) | 0 | 5% | 35 | 47% |
| 3′-Br Phenyl acetyl-Arg-Arg-D-Phe(4′-CF3)-Cys-Trp-NH2 | 94 | 89% | 99 | 72% |
| D-Nal 1′-D-Phe-Arg-Trp-Cys-NH2 | 0 | 13% | 43 | 3% |

| Substance | % Inhibition of Binding hMC2-R (hMC2-R) [%] | % Inhibition of Binding hMC4-R (MC4-R) | % Inhibition of Binding hMC5-R (hMC5-R) [%] | % Inhibition of Binding MC1-R (MC1-R) |
| --- | --- | --- | --- | --- |
| 3′-Br Phenyl acetyl-Arg-Arg-D-Bip-Cys-Bip-NH2 | 46 | 68% | 92 | 56% |
| [Bip][dF]RWC-NH2 | 0 | 19% | 51 | 0% |
| Ac-[Nle]AH[dF]R[dH]C-NH2 | 0 | 16% | 0 | 52% |
| Ac-[Nle]AW[dF]RCW-NH2 | 0 | 9% | 62 | 45% |
| D-Igl-D-Nal 2′-Arg-Trp-Cys-NH2 | 73 | 97% | 85 | 27% |
| Tic-D-Phe(4′-Cl)-Gln-Cys-NH2 | 3 | 0% | 13 | 2% |
| Ser(Bzl)-D-Nal 2′-Arg-Nal 2′-Cys-NH2 | 23 | 71% | 91 | 18% |
| 1-amino-1-cyclopentane carboxyl-D-Phe-Arg-Cys-Trp-NH2 ([Ac5c][dF]RCW-NH2; N-terminus assumed; SMILES N=C(N)NCCC[C@H](NC(=O)[C@@H](Cc1ccccc1)NC(=O)C1(N)CCCC1)C(=O)N[C@@H](CS)C(=O)N[C@@H](Cc1c[nH]c2ccccc12)C(N)=O) | 0 | 16% | 60 | 78% |
| 3′-Bromo phenyl acetyl-Arg-Ala-D-Phe(4′-Cl)-Cys-Trp-NH2 | 35 | 80% | 86 | 8% |
| Idc-D-Phe-Arg-Cys-Trp-NH2 | 0 | 4% | 19 | 0% |
| 3′-Br Phenyl acetyl-Lys-Ala-D-Phe(4′-CF3)-Cys-Trp-NH2 | 77 | 96% and 74% | 83 | 4% and 10% |
| Aic-D-Phe-Arg-Trp-Cys-NH2 | 4 | 18% | 38 | 9% |
| Nal 2′-D-Phe-Arg-Cys-Trp-NH2 ([2Nal][dF]RCW-NH2; also: metal complex) | 13 | 21% | 63 | 39% |
| Idc-D-Phe-Arg-Trp-Cys-NH2 | 0 | 11% | 0 | 12% |
| 3′-Br Phenyl acetyl-Arg-Arg-D-Bip-Cys-Trp-NH2 | 83 | 77% | 99 | 91% |
| Ac-Nle-Ala-Glu-D-Phe-Arg-Cys-Trp-NH2 (Ac-[Nle]AE[dF]RCW-NH2; not fully specified; printed as Ac-Nle-Ala-Glu-D-Phe-Arg-Cys-Trp-NH2) | 3 | 12% | 0 | 0% |
| [dIgl][dF]RCW-NH2 | 12 | 15% | 39 | 49% |
